# Data reported in PubChem BioAssay AID1549 (Sanford-Burnham Center for Chemical Genomics, 2009).
# Calls of active or inactive are those of the source. How the calls were made is not given here.
# Biological target: Influenza A virus M2 proton channel (A/TW/4845/1999 H1N1)
# Assay: M2 proton channel binding, NMR based, influenza A virus H1N1 strain (AID 1549)
# Conditions: NMR binding screen, M2 protein
row,SMILES,Kd
1,COc1cc(OC)c(OC)cc1C=O,> 4 mM (inactive)
2,CCCn1cnn2c(=O)cc(C)nc12,> 4 mM (inactive)
3,O=C(c1ncc[nH]1)c1ccccc1C(=O)N1CCOCC1,> 4 mM (inactive)
4,CC(C)(C)c1cc(CN)c(C(=O)O)o1,> 4 mM (inactive)
5,NCc1ccc(-n2cccc2)cc1,> 4 mM (inactive)
6,O=c1c(O)c(-c2ccc(O)cc2O)oc2cc(O)cc(O)c12,> 4 mM (inactive)
7,Cc1nn2c(-c3ccncc3)nnc2c2ccccc12,> 4 mM (inactive)
8,O=C(O)C1CN2CCC1CC2 (stereo not given),> 4 mM (inactive)
9,OCc1ccc(-n2cccn2)cc1,> 4 mM (inactive)
10,NNC(=O)c1ccccc1-n1cccc1,> 4 mM (inactive)
11,CN(C)c1ccc(C2CC(=O)CC(=O)C2)cc1,> 4 mM (inactive)
12,COc1cccc(NC(=O)c2nc3ncccn3n2)c1,> 4 mM (inactive)
13,O=C(O)CSCc1ccc(Cl)cc1,> 4 mM (inactive)
14,COc1ccc(-c2cc(=O)c3c(OC)c(OC)c(OC)c(OC)c3o2)cc1,> 4 mM (inactive)
15,NC(=O)CSc1nc2ccccc2[nH]1,> 4 mM (inactive)
16,COc1ccccc1-c1nc(-c2ccc(C)nc2OC)no1,> 4 mM (inactive)
17,Cc1c(CO)cnn1-c1ccc(F)cc1,> 4 mM (inactive)
18,O=C(O)C(CO)c1ccccc1 (stereo not given),> 4 mM (inactive)
19,Cn1c(CN2CC(c3ccccc3)CC2=O)n[nH]c1=S (stereo not given),> 4 mM (inactive)
20,N[C@@H](CCC(=O)N[C@@H](CS)C(=O)NCC(=O)O)C(=O)O,> 4 mM (inactive)
21,O=C(NCc1cccs1)c1ccc2c(c1)OCCO2,> 4 mM (inactive)
22,Cc1cc(OC(=O)c2c(C)cc(O)cc2O)cc(O)c1C(=O)O,> 4 mM (inactive)
23,N/N=C/c1cccnc1,> 4 mM (inactive)
24,Cn1c(=O)c2c(ncn2CCN)n(C)c1=O,> 4 mM (inactive)

row,SMILES,Kd
1,CC(C)c1c(O)c(-c2cc3c(c(C(C)C)c2O)CCC2C(C)(C)CCC[C@]32C)cc2c1CCC1C(C)(C)CCC[C@]21C (stereo not given in full),> 4 mM (inactive)
2,CNC(=O)COc1cccc2c1CCNC2=O,> 4 mM (inactive)
3,C=CC(=O)N1CC2CC(C1)c1cccc(=O)n1C2 (stereo not given),> 4 mM (inactive)
4,O=C(Nc1cnccn1)c1cccnc1,> 4 mM (inactive)
5,C/C=C(\C)c1nnc(NC(=O)C(C)C)s1,> 4 mM (inactive)
6,COc1cccc(C(=O)N2CCOCC2)c1,> 4 mM (inactive)
7,CCOC(=O)c1csc(N)n1,> 4 mM (inactive)
8,CN(C)CCCN1CNC(=S)NC1,> 4 mM (inactive)
9,Cc1nnc(-n2cnc3ccccc32)c2ccccc12,> 4 mM (inactive)
10,Cc1cc(C(=O)NCc2cccnc2)cs1,> 4 mM (inactive)
11,NCc1cn2ccccc2n1,> 4 mM (inactive)
12,O=C(Nc1cccnc1)c1cccs1,> 4 mM (inactive)
13,NN1C(=O)/C(=C/c2ccc(O)c(O)c2)SC1=S,> 4 mM (inactive)
14,CN1CCCCC1c1ccc(-c2cccnc2)nc1 (stereo not given),> 4 mM (inactive)
15,COc1nc(C)ccc1-c1noc(-c2ccncc2)n1,> 4 mM (inactive)
16,CC(C)n1c(Nn2cnnc2)nc2ccccc21,> 4 mM (inactive)
17,OCc1ccc(-c2cccs2)s1,> 4 mM (inactive)
18,COC(=O)c1c(C)cc(OC)cc1O,> 4 mM (inactive)
19,N#CCSc1nc(-c2ccccc2)cs1,> 4 mM (inactive)
20,NC(=O)CSc1nc2ncnc(N)c2[nH]1,> 4 mM (inactive)
21,CC(C)(C)c1cc(NC(=O)c2cccnc2)no1,> 4 mM (inactive)
22,Clc1ccc(-c2noc(CN3CCCC3)n2)cc1,> 4 mM (inactive)
23,Cc1noc(C)c1C(=O)N1CCC(Cc2ccccc2)CC1,> 4 mM (inactive)
24,O=C(CSc1ncccn1)NCc1ccco1,> 4 mM (inactive)

row,SMILES,Kd
1,Cc1oc2nc3c(c(=O)[nH]c(=O)n3C)n2c1C,> 4 mM (inactive)
2,CCOC(=O)c1csc(C)n1,> 4 mM (inactive)
3,CC1=CCCC2C1(C)CCC(C)C2(C)CC/C(C)=C/C[n+]1cn(C)c2c(N)ncnc21 (stereo not given),> 4 mM (inactive)
4,COc1ccccc1NC(=O)c1cc[n+]([O-])cc1,> 4 mM (inactive)
5,O=C(Nc1ccccc1C(F)(F)F)c1cnccn1,> 4 mM (inactive)
6,O=C1COc2cc(O)ccc21,> 4 mM (inactive)
7,C[n+]1cc2c3c(ccc2c2ccc4cc5c(cc4c21)OCO5)OCO3,> 4 mM (inactive)
8,CC(=O)NS(=O)(=O)c1ccc(C)cc1,> 4 mM (inactive)
9,C[C@@H]1O[C@@H](O[C@H]2[C@@H](Oc3cc(O)c4c(c3)O[C@H](c3ccc(O)cc3)CC4=O)O[C@H](CO)[C@@H](O)[C@@H]2O)[C@H](O)[C@H](O)[C@H]1O,> 4 mM (inactive)
10,O=C(Nc1cccnc1)N1CCOCC1,> 4 mM (inactive)
11,CSc1ccccc1NC(=O)c1ccc(C)o1,> 4 mM (inactive)
12,CSc1nc(C)cc(-n2ccc(=O)[nH]c2=O)n1,> 4 mM (inactive)
13,NC(=O)C1CCN(C(=O)c2ccco2)CC1,> 4 mM (inactive)
14,CC(=O)Nc1cccc(NC(=O)c2ccco2)c1,> 4 mM (inactive)
15,Nc1nc(SCC(=O)c2ccc([N+](=O)[O-])cc2)n[nH]1,> 4 mM (inactive)
16,CC1=[N+]([O-])C2(N)CCc3c(no[n+]3[O-])C2(O)C1 (stereo not given),> 4 mM (inactive)
17,CC(=O)c1c(C)n(O)c2ccc3nonc3c12,> 4 mM (inactive)
18,COC(=O)c1cccc(C(F)(F)F)c1,> 4 mM (inactive)
19,Nc1ncnc(Cl)c1[N+](=O)[O-],> 4 mM (inactive)
20,Cc1ccccc1-n1c(-c2cccnc2)n[nH]c1=S,> 4 mM (inactive)
21,NCc1ccc2c(c1)OCCCO2,> 4 mM (inactive)
22,CN1CCN(C(=O)c2cc(-c3ccccc3)on2)CC1,> 4 mM (inactive)
23,CCP(=O)(CC)c1cccc(C)c1,> 4 mM (inactive)
24,O=C1COc2ccc(C(=O)c3ccccc3)cc2CN1,> 4 mM (inactive)

row,SMILES,Kd
1,O=C(c1ccccc1F)N1CCN(c2ccccc2)CC1,> 4 mM (inactive)
2,COCCn1c(SC)nc2c1c(=O)[nH]c(=O)n2C,> 4 mM (inactive)
3,CNC(=O)n1ccc(C(=O)N2CCCCC2)n1,> 4 mM (inactive)
4,C=CCn1c(=S)[nH]c2ccc(Br)cc2c1=O,> 4 mM (inactive)
5,Cc1cc(C)nc(/N=C(/N)N2CCN(C)CC2)n1,> 4 mM (inactive)
6,O=C1NC(=O)C(Cc2ccccc2)C(=O)N1,> 4 mM (inactive)
7,c1ccc(-c2noc(-c3cccnc3)n2)nc1,> 4 mM (inactive)
8,O=C(O)Cn1cc(C(=O)c2cccs2)c2ccccc21,> 4 mM (inactive)
9,N[C@@H](Cc1cc(I)c(Oc2cc(I)c(O)c(I)c2)c(I)c1)C(=O)O,> 4 mM (inactive)
10,Cc1cc(C(=O)O)n[nH]1,> 4 mM (inactive)
11,COC(=O)C1CCN(c2ccc(Cl)nn2)CC1,> 4 mM (inactive)
12,CC1=NN(c2ccc(C)cc2)C(=O)C1,> 4 mM (inactive)
13,O=C(NCc1cccs1)c1nc2ncccn2n1,> 4 mM (inactive)
14,CCN1CC2(C)CC[C@H](OC)[C@]34C2[C@H](O)C2(OCO[C@@]25C[C@H](OC)[C@H]2C[C@]3(O)C5[C@H]2O)C14,> 4 mM (inactive)
15,Cc1cc(C)cc(C(=O)n2cnnc2N)c1,> 4 mM (inactive)
16,COc1ccc(C(N)=O)cc1N,> 4 mM (inactive)
17,COc1ccccc1NC(=O)c1snnc1C,> 4 mM (inactive)
18,O=C1OCCC1Sc1nc2ccccc2c(=O)[nH]1 (stereo not given),> 4 mM (inactive)
19,O=C(CSC1=NCCS1)N1CCc2ccccc21,> 4 mM (inactive)
20,O=C(O)c1cccc2nsnc12,> 4 mM (inactive)
21,Cn1c(CN)nc2ccccc21,> 4 mM (inactive)
22,CC(C)CCCC(C)C1CCC2C3CC(=O)[C@H]4C[C@@H](O)CC[C@]4(C)C3CC[C@]12C (stereo not given in full),> 4 mM (inactive)
23,c1cncc(C(N2CCOCC2)N2CCOCC2)c1,> 4 mM (inactive)
24,COc1ccc(-c2nc(N)n(C(C)=O)n2)cc1,> 4 mM (inactive)

row,SMILES,Kd
1,OCC1CCCC1O (stereo not given),> 4 mM (inactive)
2,O=c1c[n+]([O-])c2ccccc2n1OCc1ccccc1,> 4 mM (inactive)
3,COc1c(CC=C(C)C)c2c(c3oc(=O)c(-c4ccc(O)cc4)c(O)c13)C=CC(C)(C)O2,> 4 mM (inactive)
4,O=C(/C=C/C=C/c1ccc2c(c1)OCO2)N1CCCCC1,> 4 mM (inactive)
5,Cc1nn(-c2ccccc2)nc1C(=O)O,> 4 mM (inactive)
6,Cn1nc(C(=O)NC2CCCCC2)c2ccccc2c1=O,> 4 mM (inactive)
7,CC(=O)Oc1cc2c(c(C)c1OC(C)=O)CC=C1[C@@]2(C)CC[C@@]2(C)C3C[C@](C)(C(=O)O)CC[C@]3(C)CC[C@]12C (stereo not given in full),> 4 mM (inactive)
8,c1ccc(-c2csc(Nc3cccnc3)n2)nc1,> 4 mM (inactive)
9,COc1cccc(NC(=O)c2cnn(C)c2Cl)c1,> 4 mM (inactive)
10,CC(=O)Nc1nnc(-c2ccco2)o1,> 4 mM (inactive)
11,CCCN1CCC(N2CCC(O)CC2)CC1,> 4 mM (inactive)
12,COc1ccc2ccc(=O)oc2c1,> 4 mM (inactive)
13,CS(=O)(=O)N1CCN(c2ccccc2F)CC1,> 4 mM (inactive)
14,O=C(O)c1ccc(NCc2cccnc2)cc1,> 4 mM (inactive)
15,Cc1cc(C)n2c(SCc3cccs3)nnc2n1,> 4 mM (inactive)
16,O=C(NC1=NCCS1)c1ccc(Cl)s1,> 4 mM (inactive)
17,Cc1cc(=O)n2ncn(Cc3ccccc3)c2n1,> 4 mM (inactive)
18,COC(=O)c1scc(S(C)(=O)=O)c1-n1cccc1,> 4 mM (inactive)
19,Cc1ccc(Nc2nc(N)nc(CC#N)n2)cc1,> 4 mM (inactive)
20,O=Cc1c(N2CCOCC2)nc2ccccn2c1=O,> 4 mM (inactive)
21,NC(=O)Cn1nc(-c2ccc(F)cc2)ccc1=O,> 4 mM (inactive)
22,CC(=O)O[C@@H]1CC[C@@]2(C)C(CC[C@]3(C)C2CC=C2C4CC(C)(C)CC[C@]4(C(=O)O)CC[C@]23C)C1(C)C (stereo not given in full),> 4 mM (inactive)
23,COC(=O)c1ccc(C(=S)N2CCOCC2)cc1,> 4 mM (inactive)
24,O=C(O)c1cn(-c2ccccc2)nc1-c1ccncc1,> 4 mM (inactive)
